# In PubChem BioAssay (NCI):
#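 96-well plates; 48 h exposure; 5 concentrations. Endpoints by linear interpolation between flanking doses. Not reached: highest tested concentration assigned. The concentration for 50% growth inhibition is given as GI50. TGI marks complete inhibition of growth.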
# Assays:
# Test in all cases: inhibition of tumour cell growth, NCI panel, 48 h
# MDA-MB-231 breast = tested on: MDA-MB-231 breast
# SNB-19 CNS = tested on: SNB-19 CNS
# CAKI-1 renal = tested on: CAKI-1 renal
# NCI-H460 lung = tested on: NCI-H460 lung
# SK-MEL-2 melanoma = tested on: SK-MEL-2 melanoma
# SK-MEL-5 melanoma = tested on: SK-MEL-5 melanoma
# MCF7 breast = tested on: MCF7 breast
# NCI-H226 lung = tested on: NCI-H226 lung
# HT29 colon = tested on: HT29 colon
# HCT-116 colon = tested on: HCT-116 colon
# PC-3 prostate = tested on: PC-3 prostate
# SK-OV-3 ovarian = tested on: SK-OV-3 ovarian
# COLO 205 colon = tested on: COLO 205 colon
# HCC-2998 colon = tested on: HCC-2998 colon
# SF-295 CNS = tested on: SF-295 CNS
# U251 CNS = tested on: U251 CNS
# MDA-MB-435 = tested on: MDA-MB-435
# OVCAR-8 ovarian = tested on: OVCAR-8 ovarian
# HOP-62 NSCLC = tested on: HOP-62 NSCLC
# SR leukemia = tested on: SR leukemia
# DU-145 prostate = tested on: DU-145 prostate
# EKVX NSCLC = tested on: EKVX NSCLC
# BT-549 breast = tested on: BT-549 breast
# NCI-H23 lung = tested on: NCI-H23 lung
# SF-539 CNS = tested on: SF-539 CNS
# MOLT-4 leukemia = tested on: MOLT-4 leukemia
# 786-0 renal = tested on: 786-0 renal
# SF-268 CNS = tested on: SF-268 CNS
# RPMI-8226 leukemia = tested on: RPMI-8226 leukemia
# LOX IMVI melanoma = tested on: LOX IMVI melanoma
# SNB-75 CNS = tested on: SNB-75 CNS
# TK-10 renal = tested on: TK-10 renal
# HOP-92 NSCLC = tested on: HOP-92 NSCLC
# HCT-15 colon = tested on: HCT-15 colon
# HS 578T breast = tested on: HS 578T breast
# UACC-62 melanoma = tested on: UACC-62 melanoma
# T-47D breast = tested on: T-47D breast
# HL-60(TB) leukemia = tested on: HL-60(TB) leukemia
# RXF 393 renal = tested on: RXF 393 renal
# A498 renal = tested on: A498 renal
# UO-31 renal = tested on: UO-31 renal
# ACHN renal = tested on: ACHN renal
# NCI/ADR-RES ovarian = tested on: NCI/ADR-RES ovarian
# UACC-257 melanoma = tested on: UACC-257 melanoma
# SW-620 colon = tested on: SW-620 colon
# OVCAR-4 ovarian = tested on: OVCAR-4 ovarian
# M14 melanoma = tested on: M14 melanoma
# CCRF-CEM leukemia = tested on: CCRF-CEM leukemia
# SK-MEL-28 melanoma = tested on: SK-MEL-28 melanoma
# IGROV1 ovarian = tested on: IGROV1 ovarian
# KM12 colon = tested on: KM12 colon
# K-562 leukemia = tested on: K-562 leukemia
# OVCAR-3 ovarian = tested on: OVCAR-3 ovarian
# OVCAR-5 ovarian = tested on: OVCAR-5 ovarian
# MALME-3M melanoma = tested on: MALME-3M melanoma
# SN12C renal = tested on: SN12C renal
# A549 NSCLC = tested on: A549 NSCLC
compound,measurement,setting,value
NC(=O)c1c2c(n3ccccc13)C(=O)c1ccccc1C2=O,TGI,MDA-MB-231 breast,93 µM
same,TGI,SNB-19 CNS,> 100 µM
same,TGI,CAKI-1 renal,> 100 µM
same,TGI,NCI-H460 lung,82.5 µM
same,TGI,SK-MEL-2 melanoma,> 100 µM
same,TGI,SK-MEL-5 melanoma,37 µM
same,TGI,MCF7 breast,> 100 µM
same,TGI,NCI-H226 lung,> 100 µM
same,TGI,HT29 colon,> 100 µM
same,TGI,HCT-116 colon,> 100 µM
same,TGI,PC-3 prostate,> 100 µM
same,TGI,SK-OV-3 ovarian,> 100 µM
same,TGI,COLO 205 colon,> 100 µM
same,TGI,HCC-2998 colon,> 100 µM
same,TGI,SF-295 CNS,> 100 µM
same,TGI,U251 CNS,> 100 µM
same,TGI,MDA-MB-435,44 µM
same,TGI,OVCAR-8 ovarian,> 100 µM
same,TGI,HOP-62 NSCLC,> 100 µM
same,TGI,SR leukemia,> 100 µM
same,TGI,DU-145 prostate,> 100 µM
same,TGI,EKVX NSCLC,> 100 µM
same,TGI,BT-549 breast,> 100 µM
same,TGI,NCI-H23 lung,36.4 µM
same,TGI,SF-539 CNS,> 100 µM
same,TGI,MOLT-4 leukemia,> 100 µM
same,TGI,786-0 renal,> 100 µM
same,TGI,SF-268 CNS,> 100 µM
same,TGI,RPMI-8226 leukemia,> 100 µM
same,TGI,LOX IMVI melanoma,> 100 µM
same,TGI,SNB-75 CNS,> 100 µM
same,TGI,TK-10 renal,> 100 µM
same,TGI,HOP-92 NSCLC,> 100 µM
same,TGI,HCT-15 colon,> 100 µM
same,TGI,HS 578T breast,> 100 µM
same,TGI,UACC-62 melanoma,> 100 µM
same,TGI,T-47D breast,> 100 µM
same,TGI,HL-60(TB) leukemia,> 100 µM
same,TGI,RXF 393 renal,> 100 µM
same,TGI,A498 renal,> 100 µM
same,TGI,UO-31 renal,> 100 µM
same,TGI,ACHN renal,> 100 µM
same,TGI,NCI/ADR-RES ovarian,> 100 µM
same,TGI,UACC-257 melanoma,> 100 µM
same,TGI,SW-620 colon,> 100 µM
same,TGI,OVCAR-4 ovarian,> 100 µM
same,TGI,M14 melanoma,> 100 µM
same,TGI,CCRF-CEM leukemia,> 100 µM
same,TGI,SK-MEL-28 melanoma,> 100 µM
same,TGI,IGROV1 ovarian,> 100 µM
same,TGI,KM12 colon,> 100 µM
same,TGI,K-562 leukemia,> 100 µM
O=c1[nH]c2ccc(C(F)(F)F)cc2nc1Cc1ccccc1,TGI,MDA-MB-231 breast,> 100 µM
same,TGI,SNB-19 CNS,> 100 µM
same,TGI,CAKI-1 renal,> 100 µM
same,TGI,NCI-H460 lung,> 100 µM
same,TGI,SK-MEL-2 melanoma,62.6 µM
same,TGI,SK-MEL-5 melanoma,60.2 µM
same,TGI,MCF7 breast,> 100 µM
same,TGI,NCI-H226 lung,50.7 µM
same,TGI,HT29 colon,68.7 µM
same,TGI,HCT-116 colon,> 100 µM
same,TGI,PC-3 prostate,81.3 µM
same,TGI,SK-OV-3 ovarian,> 100 µM
same,TGI,COLO 205 colon,40.7 µM
same,TGI,HCC-2998 colon,82.6 µM
same,TGI,SF-295 CNS,> 100 µM
same,TGI,U251 CNS,> 100 µM
same,TGI,MDA-MB-435,> 100 µM
same,TGI,OVCAR-8 ovarian,> 100 µM
same,TGI,HOP-62 NSCLC,> 100 µM
same,TGI,SR leukemia,> 100 µM
same,TGI,DU-145 prostate,> 100 µM
same,TGI,EKVX NSCLC,> 100 µM
same,TGI,BT-549 breast,69.4 µM
same,TGI,NCI-H23 lung,46.5 µM
same,TGI,SF-539 CNS,> 100 µM
same,TGI,MOLT-4 leukemia,46 µM
same,TGI,786-0 renal,> 100 µM
same,TGI,SF-268 CNS,> 100 µM
same,TGI,RPMI-8226 leukemia,87.6 µM
same,TGI,LOX IMVI melanoma,> 100 µM
same,TGI,SNB-75 CNS,> 100 µM
same,TGI,TK-10 renal,> 100 µM
same,TGI,HOP-92 NSCLC,50.4 µM
same,TGI,HCT-15 colon,> 100 µM
same,TGI,HS 578T breast,71.3 µM
same,TGI,UACC-62 melanoma,> 100 µM
same,TGI,T-47D breast,> 100 µM
same,TGI,HL-60(TB) leukemia,> 100 µM
same,TGI,RXF 393 renal,61.6 µM
same,TGI,A498 renal,66.9 µM
same,TGI,UO-31 renal,> 100 µM
same,TGI,ACHN renal,88.4 µM
same,TGI,NCI/ADR-RES ovarian,71.2 µM
same,TGI,UACC-257 melanoma,> 100 µM
same,TGI,SW-620 colon,> 100 µM
same,TGI,OVCAR-4 ovarian,> 100 µM
same,TGI,M14 melanoma,97.1 µM
same,TGI,CCRF-CEM leukemia,> 100 µM
same,TGI,SK-MEL-28 melanoma,> 100 µM
same,TGI,IGROV1 ovarian,> 100 µM
same,TGI,KM12 colon,> 100 µM
same,TGI,K-562 leukemia,> 100 µM
O=C(COc1cccc(/C=C2/Oc3ccccc3C2=O)c1)Nc1nccs1,GI50,OVCAR-3 ovarian,14.6 µM
same,TGI,OVCAR-3 ovarian,38.8 µM
same,GI50,MDA-MB-231 breast,7.95 µM
same,TGI,MDA-MB-231 breast,29.8 µM
same,GI50,SNB-19 CNS,25.4 µM
same,TGI,SNB-19 CNS,> 100 µM
same,GI50,CAKI-1 renal,15.9 µM
same,TGI,CAKI-1 renal,34.4 µM
same,GI50,NCI-H460 lung,31.6 µM
same,TGI,NCI-H460 lung,> 100 µM
same,GI50,SK-MEL-5 melanoma,16.4 µM
same,TGI,SK-MEL-5 melanoma,35.2 µM
same,GI50,MCF7 breast,14.8 µM
same,TGI,MCF7 breast,> 100 µM
same,GI50,OVCAR-5 ovarian,44 µM
same,TGI,OVCAR-5 ovarian,> 100 µM
same,GI50,NCI-H226 lung,22.9 µM
same,TGI,NCI-H226 lung,67.9 µM
same,GI50,HT29 colon,32.7 µM
same,TGI,HT29 colon,> 100 µM
same,GI50,HCT-116 colon,22.8 µM
same,TGI,HCT-116 colon,> 100 µM
same,GI50,PC-3 prostate,15.7 µM
same,TGI,PC-3 prostate,58.1 µM
same,GI50,SK-OV-3 ovarian,48.6 µM
same,TGI,SK-OV-3 ovarian,> 100 µM
same,GI50,COLO 205 colon,24.4 µM
same,TGI,COLO 205 colon,97.9 µM
same,GI50,HCC-2998 colon,29 µM
same,TGI,HCC-2998 colon,68.9 µM
same,GI50,SF-295 CNS,36.4 µM
same,TGI,SF-295 CNS,> 100 µM
same,GI50,U251 CNS,20.8 µM
same,TGI,U251 CNS,> 100 µM
same,GI50,MDA-MB-435,21.2 µM
same,TGI,MDA-MB-435,68 µM
same,GI50,OVCAR-8 ovarian,16.5 µM
same,TGI,OVCAR-8 ovarian,50.1 µM
same,GI50,HOP-62 NSCLC,38.3 µM
same,TGI,HOP-62 NSCLC,> 100 µM
same,GI50,SR leukemia,4.09 µM
same,TGI,SR leukemia,15.9 µM
same,GI50,DU-145 prostate,27.8 µM
same,TGI,DU-145 prostate,> 100 µM
same,GI50,EKVX NSCLC,31.9 µM
same,TGI,EKVX NSCLC,> 100 µM
same,GI50,MALME-3M melanoma,21.2 µM
same,TGI,MALME-3M melanoma,50.9 µM
same,GI50,BT-549 breast,14.9 µM
same,TGI,BT-549 breast,43.7 µM
same,GI50,NCI-H23 lung,24.8 µM
same,TGI,NCI-H23 lung,> 100 µM
same,GI50,SF-539 CNS,17.1 µM
same,TGI,SF-539 CNS,31.9 µM
same,GI50,MOLT-4 leukemia,13 µM
same,TGI,MOLT-4 leukemia,31.4 µM
same,GI50,SN12C renal,22.4 µM
same,TGI,SN12C renal,> 100 µM
same,GI50,786-0 renal,3.3 µM
same,TGI,786-0 renal,14.4 µM
same,GI50,SF-268 CNS,6.23 µM
same,TGI,SF-268 CNS,26.6 µM
same,GI50,RPMI-8226 leukemia,4.28 µM
same,TGI,RPMI-8226 leukemia,23.1 µM
same,GI50,LOX IMVI melanoma,2.78 µM
same,TGI,LOX IMVI melanoma,10.2 µM
same,GI50,SNB-75 CNS,17.1 µM
same,TGI,SNB-75 CNS,58.1 µM
same,GI50,TK-10 renal,15.9 µM
same,TGI,TK-10 renal,68.7 µM
same,GI50,HOP-92 NSCLC,10.1 µM
same,TGI,HOP-92 NSCLC,30.2 µM
same,GI50,HCT-15 colon,28.3 µM
same,TGI,HCT-15 colon,> 100 µM
same,GI50,HS 578T breast,24.4 µM
same,TGI,HS 578T breast,> 100 µM
same,GI50,UACC-62 melanoma,25.6 µM
same,TGI,UACC-62 melanoma,95.9 µM
same,GI50,T-47D breast,16.8 µM
same,TGI,T-47D breast,58.5 µM
same,GI50,HL-60(TB) leukemia,2.86 µM
same,TGI,HL-60(TB) leukemia,8.58 µM
same,GI50,A498 renal,20.8 µM
same,TGI,A498 renal,85.4 µM
same,GI50,ACHN renal,27.4 µM
same,TGI,ACHN renal,> 100 µM
same,GI50,NCI/ADR-RES ovarian,30 µM
same,TGI,NCI/ADR-RES ovarian,> 100 µM
same,GI50,A549 NSCLC,23.6 µM
same,TGI,A549 NSCLC,> 100 µM
same,GI50,UACC-257 melanoma,20.7 µM
same,TGI,UACC-257 melanoma,56.3 µM
same,GI50,SW-620 colon,27.4 µM
same,TGI,SW-620 colon,> 100 µM
same,GI50,OVCAR-4 ovarian,19.5 µM
same,TGI,OVCAR-4 ovarian,61.8 µM
same,GI50,M14 melanoma,30.5 µM
same,TGI,M14 melanoma,> 100 µM
same,GI50,CCRF-CEM leukemia,1.89 µM
same,TGI,CCRF-CEM leukemia,3.73 µM
same,GI50,SK-MEL-28 melanoma,28.9 µM
same,TGI,SK-MEL-28 melanoma,> 100 µM
same,GI50,KM12 colon,10.5 µM
same,TGI,KM12 colon,32.9 µM
same,GI50,K-562 leukemia,16.4 µM
same,TGI,K-562 leukemia,53.7 µM
